According to article PMC10447287, “Optimisation of Pharmaceutical Cocrystal Dissolution Performance through a Synergistic Precipitation Inhibition” (Pharmaceutical Research, 2023):

Key:
Format in all cases: physicochemical
[1] = Dissolution tests of powder mixtures of FFA-NIC cocrystal with polymers in PBS pH 6.8 (sink); settings: for FFA DPP: reference neat cocrystal in PBS pH 6.8; for incongruent indicator k(t) (molar FFA/NIC in solution): PBS pH 6.8, sink conditions
Experimental: Similarly, in vitro dissolution tests of the powder mixtures of 71.7 mg of the FFA-NIC cocrystals with an individual polymer or a combination in PBS pH 4.5 or PBS pH 6.8 were conducted in triplicate. The amount of a polymer used in the powder mixture was 80 mg of PVP-VA, 400 mg of PEG, or 80 mg of SLP, corresponding to their predissolved concentrations used in Section "Dissolution Tests of FFA, the Neat FFA-TP Cocrystal or FFA-NIC Cocrystal Powders in DDW in the Absence and Presence of a Predissolved Polymer or a Combination".
(§1) DPP was used to evaluate the dissolution profile of the test powders in comparison to a reference system, which is defined as,4 DPP=AUCC(t)-AUCCR(t)/AUCCR(t)×100% where AUCC(t) is the area under the curve (AUC) of a dissolution profile C(t) , indicating the amount of drug dissolved is maintained over the period of the dissolution time from 0 to t, and AUCCR(t) is the AUC of a reference dissolution profile CR(t) .

[2] = Particle size distribution of sieved powders; settings: sieved particles < 250 μm
Experimental: All samples (i.e., FFA, FFA-NIC cocrystal and FFA-TP cocrystal) used in the dissolution tests were slightly ground by a mortar and pestle and sieved by a 60-mesh sieve (below 250 μm) to reduce the influence of particle size on the dissolution rates. The particle size distributions of the test samples were measured using a SYNC Analyzer (MICROTRAC Retsch GmbH, Hann, Germany). The particle size distributions (D10, D50, D90 and mean particle size) of the solid particles were compared. The data were analysed by the Microtrac FLEX software (12.0.0.1).

[3] = Dissolution tests of powder mixtures of FFA-NIC cocrystal with polymers in PBS pH 4.5 (non-sink); settings: for incongruent indicator k(t) (molar FFA/NIC in solution): PBS pH 4.5, neat cocrystal; for FFA DPP: reference neat cocrystal in PBS pH 4.5
Experimental: Similarly, in vitro dissolution tests of the powder mixtures of 71.7 mg of the FFA-NIC cocrystals with an individual polymer or a combination in PBS pH 4.5 or PBS pH 6.8 were conducted in triplicate. […], 400 mg of PEG, […], corresponding to their predissolved concentrations used in Section "Dissolution Tests of FFA, the Neat FFA-TP Cocrystal or FFA-NIC Cocrystal Powders in DDW in the Absence and Presence of a Predissolved Polymer or a Combination".
The solid residues obtained from the experiments in PBS pH 4.5 were dried at room temperature and analysed by PXRD.
as §1
(§2) The solids were scanned by D2 phaser diffractometer (Bruker U.K. Limited, Coventry, UK) with […] radiation operating at voltage of 30 kV and current of 10 mA. The scanning angle ranged from 2°-40° of 2θ. The scanning time per step was 0.4 s. The scan step size was 0.02° of 2θ.

[4] = Dissolution tests of powders in DDW with predissolved polymer or combination (USP type II paddle); settings: for incongruent indicator k(t) (molar FFA/NIC in solution): neat cocrystal
Experimental: In vitro dissolution tests were performed with a USP type II paddle apparatus (DT 126 light, Erweka GmbH, Germany) at 37 ± 0.5°C with a paddle speed of 50 rpm in 400 mL of DDW in the absence and presence of a predissolved polymer (i.e., 0.2 mg/mL of PVP-VA, 1 mg/mL of PEG, 0.2 mg/mL of SLP) or a combination of two polymers (i.e., 0.2 mg/mL PVP-VA + 1 mg/mL PEG, […]).
71.7 mg of FFA-NIC cocrystal powders with the equivalent of 50 mg FFA I powders were used in each of the dissolution tests. Samples of 1 ± 0.1 mL were withdrawn from the dissolution vessel at the predefined time points of 5, 10, 15, 30, 60, 120, 180 and 240 min. The supernatant of each of the samples was separated from the excess solids by centrifugation at 13,000 RPM for 1 min in an MSE Micro Centaur. HPLC was used to determine the concentrations of FFA and NIC in solution. Solid residues obtained from the experiments were dried at room temperature and analysed by PXRD. All experiments were repeated in triplicate.
For comparison, the above dissolution tests were also repeated using 50 mg of pure FFA I powders and 82.0 mg of FFA-TP cocrystal powders.
as §1, §2

[5] = DDW, combination of predissolved PVP-VA and PEG
[6] = DDW, no polymer, powder dissolution

Structure (SMILES): NC(=O)c1cccnc1.O=C(O)c1ccccc1Nc1cccc(C(F)(F)F)c1 [FFA-NIC cocrystal]
- solid residues after dissolution ([1]; PBS pH 6.8, 37°C, after 4 h): no solid residue
- FFA DPP ([1]; PBS pH 6.8, powder mixture with PVP-VA (0.2 mg/mL)): 11%
- FFA DPP ([1]; PBS pH 6.8, powder mixture with PVP-VA (0.4 mg/mL)): 7%
- incongruent constant k(t) ([1]; PBS pH 6.8, powder mixture with PVP-VA, at 60 min): > 0.94
- FFA DPP ([1]; PBS pH 6.8, powder mixture with SLP (0.1 mg/mL) + PVP-VA (0.4 mg/mL)): 8%
- FFA DPP ([1]; PBS pH 6.8, powder mixture with SLP (0.2 mg/mL) + PVP-VA (0.2 mg/mL)): 6%
- FFA DPP ([1]; PBS pH 6.8, powder mixture with SLP (0.2 mg/mL) + PVP-VA (0.4 mg/mL)): 9%
- FFA DPP ([1]; PBS pH 6.8, powder mixture with SLP (0.2 mg/mL)): -0.1%
- incongruent indicator k(t) (molar FFA/NIC in solution) ([1]; at 5 min): 0.75
- incongruent indicator k(t) (molar FFA/NIC in solution) ([1]; at the end of dissolution): 0.94
- D10 [2]: 6.08 μm
- D50 [2]: 13.77 μm
- D90 [2]: 33.97 μm
- Mean particle size [2]: 17.63 μm
- solid residues after dissolution tests (PXRD) ([3]; PBS pH 4.5, groups SLP (0.1 mg/mL) + PVP-VA (0.4 mg/mL) and SLP (0.2 mg/mL) + PVP-VA (0.8 mg/mL)): FFA-NIC cocrystals were also found in the solid residues
- incongruent indicator k(t) (molar FFA/NIC in solution) ([3]; at 5 min): 0.03
- incongruent indicator k(t) (molar FFA/NIC in solution) ([3]; at 60 min): 0.07
- FFA DPP ([3]; PBS pH 4.5, powder mixture with PEG (1 mg/mL) + PVP-VA (0.2 mg/mL)): 36%
- FFA DPP ([3]; PBS pH 4.5, powder mixture with PEG (1 mg/mL)): 11%
- FFA concentration at the end of the test ([3]; PBS pH 4.5, powder mixture with PVP-VA): 17.38 µg/mL
- FFA DPP ([3]; PBS pH 4.5, powder mixture with PVP-VA (0.2 mg/mL)): 92%
- maximum supersaturated FFA concentration ([3]; PBS pH 4.5, powder mixture with PVP-VA, at 60 min): 19.65 µg/mL
- FFA DPP ([3]; PBS pH 4.5, powder mixture with SLP (0.1 mg/mL) + PVP-VA (0.4 mg/mL)): 150%
- FFA DPP ([3]; PBS pH 4.5, powder mixture with SLP (0.2 mg/mL) + PVP-VA (0.2 mg/mL)): 159%
- FFA DPP ([3]; PBS pH 4.5, powder mixture with SLP (0.2 mg/mL) + PVP-VA (0.4 mg/mL)): 179%
- FFA DPP ([3]; PBS pH 4.5, powder mixture with SLP (0.2 mg/mL) + PVP-VA (0.8 mg/mL)): 204%
- FFA DPP ([3]; PBS pH 4.5, powder mixture with SLP (0.2 mg/mL)): 2%
- solid residues after dissolution tests (PXRD) ([3]; all dissolution tests in PBS pH 4.5): FFA III solids were crystallised
- solid residues after dissolution tests (PXRD) ([4]; DDW in the absence or presence of predissolved polymers): FFA III
- FFA concentration at 240 min [4, 5]: 11.44 µg/mL
- maximum FFA concentration [4, 5]: 14.28 µg/mL
- time to generate supersaturated state of FFA concentration [4, 5]: ≤ 5 min
- solid residues after dissolution tests (PXRD) ([4]; DDW, combinations of predissolved PVP-VA and SLP at various concentrations except SLP (0.2 mg/mL) + PVP-VA (0.8 mg/mL)): FFA III alone
- incongruent indicator k(t) (molar FFA/NIC in solution) ([4]; DDW, at 5 min): 0.06
- incongruent indicator k(t) (molar FFA/NIC in solution) ([4]; DDW, at 60 min): 0.08
- FFA concentration reached within 60 min [4, 6]: 10.23 µg/mL
- FFA concentration, constant level after 60 min [4, 6]: 10.78 µg/mL
- time for FFA concentration to reach aqueous equilibrium solubility ([4]; DDW, predissolved 0.2 mg/mL PVP-VA): ≤ 15 min
- maximum FFA concentration ([4]; DDW, predissolved 0.2 mg/mL PVP-VA, at 60 min): 12.93 µg/mL
- FFA DPP (dissolution performance parameter) ([4]; DDW, predissolved PEG (1 mg/mL), 0-4 h, reference same powder in DDW): -7%
- FFA DPP (dissolution performance parameter) ([4]; DDW, predissolved PVP-VA (0.2 mg/mL), 0-4 h, reference same powder in DDW): 19%
- NIC release from cocrystal powders ([4]; DDW, predissolved PVP-VA or its combination with PEG or SLP): released completely
- FFA concentration in solution after 4 h ([4]; DDW, predissolved SLP (0.2 mg/mL)): 26.18 µg/mL
- FFA DPP (dissolution performance parameter) ([4]; DDW, predissolved SLP (0.2 mg/mL) + PVP-VA (0.1 mg/mL), reference DDW): 112%
- FFA DPP (dissolution performance parameter) ([4]; DDW, predissolved SLP (0.2 mg/mL) + PVP-VA (0.2 mg/mL), 0-4 h, reference same powder in DDW): 160%
- FFA DPP (dissolution performance parameter) ([4]; DDW, predissolved SLP (0.2 mg/mL) + PVP-VA (0.3 mg/mL), reference DDW): 296%
- FFA DPP (dissolution performance parameter) ([4]; DDW, predissolved SLP (0.2 mg/mL) + PVP-VA (0.4 mg/mL), reference DDW): 345%
- FFA DPP (dissolution performance parameter) ([4]; DDW, predissolved SLP (0.2 mg/mL) + PVP-VA (0.8 mg/mL), reference DDW): 310%
- solid residues after dissolution tests (PXRD) ([4]; DDW, predissolved SLP (0.2 mg/mL) and PVP-VA (0.8 mg/mL)): mixtures of FFA III and FFA-NIC cocrystal
- FFA DPP (dissolution performance parameter) ([4]; DDW, predissolved SLP (0.2 mg/mL), 0-4 h, reference same powder in DDW): 67%
- NIC release from cocrystal powders ([4]; DDW, single polymer of PEG or SLP): not complete
- solid residues after dissolution tests (PXRD) ([4]; SLP predissolved DDW): both FFA III and FFA-NIC cocrystal
